Measured values from patent US10532053B2, “Histone deacetylase inhibitor, and preparation method and use thereof” (GUANGDONG ZHONGSHENG PHARMACEUTICAL CO., LTD, priority 2015, dated 2020).
pIC50: −log10 of the molar value. Read-outs that look alike come from different tables or passages of the source.

What was measured:
[1] = molecular target: T1, HDAC1 (Homo sapiens, UniProt Q13547); assay: HDAC inhibitory activity, fluorescence-coupled acetylated peptide substrate assay (Lys-Ac-AMC); assay type: biochemical
T1 construct: purchased BPS Bioscience
T1 sequence (Q13547 whole entry): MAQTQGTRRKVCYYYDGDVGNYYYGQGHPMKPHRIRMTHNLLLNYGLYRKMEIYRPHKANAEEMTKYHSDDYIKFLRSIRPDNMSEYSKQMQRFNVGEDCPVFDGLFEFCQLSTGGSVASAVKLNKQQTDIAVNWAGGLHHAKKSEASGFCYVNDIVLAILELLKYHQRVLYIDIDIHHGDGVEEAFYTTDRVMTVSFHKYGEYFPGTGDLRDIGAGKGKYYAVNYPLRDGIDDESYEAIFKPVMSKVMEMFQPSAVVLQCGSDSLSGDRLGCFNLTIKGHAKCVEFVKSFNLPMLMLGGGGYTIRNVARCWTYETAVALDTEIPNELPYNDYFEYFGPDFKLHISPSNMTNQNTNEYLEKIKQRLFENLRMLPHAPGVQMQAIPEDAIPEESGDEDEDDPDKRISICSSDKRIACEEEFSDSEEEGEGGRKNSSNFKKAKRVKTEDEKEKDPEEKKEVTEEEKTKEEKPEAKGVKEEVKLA
Procedure: (§2) The HDAC inhibitory activity was determined by fluorescence-coupled acetylated peptide substrate assay (Lys-Ac-AMC). HDAC1 protein was purchased from BPS Bioscience, and the reaction buffer system was a modified tris(hydroxymethyl)aminomethane buffer (pH 7.0). The small molecule compounds of the present invention were prepared by being dissolved in 100% DMSO. HDAC was prepared in a buffer at a certain concentration as an enzyme solution; trypsin and fluorescent group 4-amino-7-coumarin coupled-acetylated peptide (Ac-peptide) substrate were prepared in a buffer at a certain concentration as a substrate solution. The compounds were added into the reaction wells in a 384-well plate at a designed concentration of 10 μM, 1 μM, 0.5 μM, 0.1 μM, 0.05 μM, 0.01 μM, 0.005 μM, 0.001 μM, and 0.00005 μM, respectively, and then 15 μl of the HDAC solution was added into the reaction wells (15 μl of blank buffer to the control well). […] The results were analyzed by GraphPad Prism software and IC50 values were calculated according to the formula: Y=Background Data+(Top Data−Background Data)/(1+10^((Log IC50−X) a curve slope)), where Y: the inhibition rate (%) and X: the concentration of the compound.

[2] = molecular target: T2, HDAC6 (Homo sapiens, UniProt Q9UBN7); assay: HDAC inhibitory activity, fluorescence-coupled acetylated peptide substrate assay; assay type: biochemical; settings: for Selection Ratio HDAC1/6: ratio of IC50 HDAC1 to HDAC6; for Selection Ratio HDAC8/6: ratio of IC50 HDAC8 to HDAC6
T2 sequence (Q9UBN7 1-1215): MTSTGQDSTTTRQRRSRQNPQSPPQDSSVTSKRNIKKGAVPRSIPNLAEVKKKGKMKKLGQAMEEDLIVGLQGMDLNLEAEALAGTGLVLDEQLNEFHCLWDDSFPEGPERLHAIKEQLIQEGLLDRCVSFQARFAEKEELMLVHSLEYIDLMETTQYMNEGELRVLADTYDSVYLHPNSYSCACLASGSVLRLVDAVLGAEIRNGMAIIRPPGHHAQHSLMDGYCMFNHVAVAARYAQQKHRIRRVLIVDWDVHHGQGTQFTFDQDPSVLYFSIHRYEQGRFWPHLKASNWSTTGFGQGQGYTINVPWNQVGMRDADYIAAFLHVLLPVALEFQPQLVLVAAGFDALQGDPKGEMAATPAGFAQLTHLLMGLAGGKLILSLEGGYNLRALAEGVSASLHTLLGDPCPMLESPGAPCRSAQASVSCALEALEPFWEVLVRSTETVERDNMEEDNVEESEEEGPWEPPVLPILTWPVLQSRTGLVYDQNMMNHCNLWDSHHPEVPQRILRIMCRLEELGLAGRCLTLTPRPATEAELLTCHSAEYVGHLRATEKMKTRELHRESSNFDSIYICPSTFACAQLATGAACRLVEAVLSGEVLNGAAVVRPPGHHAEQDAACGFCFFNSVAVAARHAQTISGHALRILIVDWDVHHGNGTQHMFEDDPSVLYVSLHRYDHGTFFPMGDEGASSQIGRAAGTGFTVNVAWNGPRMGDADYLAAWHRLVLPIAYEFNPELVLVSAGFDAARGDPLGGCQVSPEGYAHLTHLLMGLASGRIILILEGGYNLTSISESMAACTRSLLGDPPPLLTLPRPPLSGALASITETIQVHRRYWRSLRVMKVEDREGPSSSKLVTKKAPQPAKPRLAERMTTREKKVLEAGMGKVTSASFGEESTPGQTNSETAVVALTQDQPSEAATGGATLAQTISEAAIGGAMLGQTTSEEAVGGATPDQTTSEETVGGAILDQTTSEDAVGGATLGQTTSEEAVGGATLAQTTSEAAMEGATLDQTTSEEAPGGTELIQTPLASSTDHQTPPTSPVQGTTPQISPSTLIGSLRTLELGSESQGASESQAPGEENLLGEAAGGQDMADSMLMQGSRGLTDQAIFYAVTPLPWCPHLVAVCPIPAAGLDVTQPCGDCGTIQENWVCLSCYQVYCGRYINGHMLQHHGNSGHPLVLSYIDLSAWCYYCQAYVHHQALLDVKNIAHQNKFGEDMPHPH
Procedure: as §2

[3] = system: Human cervical cancer cell Hela; assay: Cell proliferative activity (MTT / cck-8); assay type: cell-based; settings: incubated for 96 hours, read-out: Half-Inhibitory Concentration IC50 Human cervical cancer cell Hela
Procedure: (§1) Tumor cell line A375: human melanoma cell; H460: lung adenocarcinoma cell; Hela: human cervical cancer cell; HepG2: human liver cancer cell; and SKOV-3: human ovarian cancer cell, were all purchased from ATCC and cultured to logarithmic phase according to the cultivation protocol recommended by ATCC. The cells in the logarithmic phase were plated onto a 96-well plate at 2000-3000 cells/well; in the case of adherent cells, the cells should be adherent to the wall. […] After that, the cell proliferative activity was determined by MTT assay for the tumor cells representing the solid tumor model and by cck-8 assay for the tumor cells representing the hematologic tumor model.

[4] = system: Human liver cancer cell HepG2; assay: Cell proliferative activity (MTT / cck-8); assay type: cell-based; settings: incubated for 96 hours, read-out: Half-Inhibitory Concentration IC50 Human liver cancer cell HepG2
Procedure: as §1

[5] = system: Human lung cancer cell H460; assay: Cell proliferative activity (MTT / cck-8); assay type: cell-based; settings: NCI-H460, incubated for 96 hours, read-out: Half-Inhibitory Concentration IC50 Human lung cancer cell H460
Procedure: as §1

[6] = system: Human melanoma A375; assay: Cell proliferative activity (MTT / cck-8); assay type: cell-based; settings: A-375, incubated for 96 hours, read-out: Half-Inhibitory Concentration IC50 Human melanoma A375
Procedure: as §1

[7] = system: Human ovarian cancer cell SKOV-3; assay: Cell proliferative activity (MTT / cck-8); assay type: cell-based; settings: SK-OV-3, incubated for 96 hours, read-out: Half-Inhibitory Concentration IC50 Human ovarian cancer cell SKOV-3
Procedure: as §1

[8] = molecular target: T3, HDAC8 (Homo sapiens, UniProt Q9BY41); assay: HDAC inhibitory activity, fluorescence-coupled acetylated peptide substrate assay
T3 sequence (Q9BY41 1-377): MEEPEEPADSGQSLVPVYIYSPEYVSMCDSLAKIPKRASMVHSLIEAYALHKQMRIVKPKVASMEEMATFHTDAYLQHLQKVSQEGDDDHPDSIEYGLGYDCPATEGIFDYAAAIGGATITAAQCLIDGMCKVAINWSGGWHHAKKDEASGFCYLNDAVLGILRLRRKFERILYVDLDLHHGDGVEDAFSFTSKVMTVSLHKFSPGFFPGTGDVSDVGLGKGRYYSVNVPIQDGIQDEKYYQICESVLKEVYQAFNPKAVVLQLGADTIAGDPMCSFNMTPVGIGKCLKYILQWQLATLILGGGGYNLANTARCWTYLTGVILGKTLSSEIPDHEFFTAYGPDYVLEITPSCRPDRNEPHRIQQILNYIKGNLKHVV
Procedure: as §2

Row | SMILES | pIC50 ([1]; Table 2) | pIC50 ([1]; Table 3) | pIC50 ([2]; Table 2) | pIC50 ([2]; Table 3) | Selection Ratio HDAC1/6 [2] | Selection Ratio HDAC8/6 [2] | pIC50 [3] | pIC50 [4] | pIC50 [5] | pIC50 [6] | pIC50 [7] | pIC50 ([8]; IC50 HDAC8, Table 2) | pIC50 ([8]; read-out: IC50 HDAC8, Table 3) | pIC50 ([8]; IC50 HDAC8, Table 3)
1 | Cc1nc(N(C)c2ccc(OCC(=O)NO)cc2)c2ccccc2n1 [II-1, N-hydroxy-2-(4-(methyl(2-methyl-4-quinazolinyl)amino)phenoxy)acetamide] | 6.00 to 7.00 | 6.76 | > 8.00 | 8.07 | 20.0 | 137.3 | 6.00 to 7.00 | 6.00 to 7.00 | 6.00 to 7.00 | < 6.00 | 6.00 to 7.00 | < 6.00 | 5.93 | 
2 | Cc1nc(N(C)c2ccc(OCCCCC(=O)NO)cc2)c2ccccc2n1 [II-3, N-hydroxy-5-(4-(methyl(2-methyl-4-quinazolinyl)amino)phenoxy)pentanamide] | 6.00 to 7.00 | 6.35 | 7.00 to 8.00 | 7.24 | 7.9 | 29.8 | < 6.00 | < 6.00 | 6.00 to 7.00 | < 6.00 | 6.00 to 7.00 | < 6.00 | 5.77 | 
3 | Cc1nc(N(C)c2ccc(OCCCCCC(=O)NO)cc2)c2ccccc2n1 [II-4, N-hydroxy-6-(4-(methyl(2-methyl-4-quinazolinyl)amino)phenoxy)hexanamide] | 6.00 to 7.00 | 6.57 | 7.00 to 8.00 | 7.47 | 8.0 | 44.4 | < 6.00 | < 6.00 | < 6.00 | < 6.00 | 6.00 to 7.00 | < 6.00 | 5.82 | 
4 | Cc1nc(N(C)c2ccc(OCc3ccc(C(=O)NO)cc3)cc2)c2ccccc2n1 [II-5, N-hydroxy-4-((4-(methyl(2-methyl-4-quinazolinyl)amino)phenoxy)methyl)benzamide] |  |  | > 8.00 | 8.19 | 6.9 | 371.3 | < 6.00 | < 6.00 | < 6.00 | < 6.00 | < 6.00 | < 6.00 |  | 5.62
5 | CN(c1ccc(OCCCCC(=O)NO)cc1)c1ncnc2ccccc12 [II-14, N-hydroxy-5-(4-(methyl(4-quinazolinyl)amino)phenoxy)pentanamide] | 6.00 to 7.00 | 6.69 | 7.00 to 8.00 | 7.31 | 4.1 | 27.1 | < 6.00 | < 6.00 | < 6.00 | < 6.00 | < 6.00 | < 6.00 | 5.88 | 
6 | CN(c1ccc(OCCCCCC(=O)NO)cc1)c1ncnc2ccccc12 [II-15, N-hydroxy-6-(4-(methyl(4-quinazolinyl)amino)phenoxy)hexanamide] | 6.00 to 7.00 | 6.75 | 7.00 to 8.00 | 7.72 | 9.3 | 55.7 | < 6.00 | < 6.00 | < 6.00 | 6.00 to 7.00 | < 6.00 | < 6.00 | 5.98 | 
7 | Cc1nc(Nc2ccc(OCCC(=O)NO)cc2)c2ccccc2n1 [II-24, N-hydroxy-3-(4-((2-methyl-4-quinazolinyl)amino)phenoxy)propionamide] | < 6.00 |  | 6.00 to 7.00 |  |  |  | < 6.00 | < 6.00 | < 6.00 | < 6.00 | < 6.00 | < 6.00 |  | 

Second part, the compound after the results:

Row | pIC50 ([1]; Table 2) | pIC50 ([1]; Table 3) | pIC50 ([2]; Table 2) | pIC50 ([2]; Table 3) | Selection Ratio HDAC1/6 [2] | Selection Ratio HDAC8/6 [2] | pIC50 [3] | pIC50 [4] | pIC50 [5] | pIC50 [6] | pIC50 [7] | pIC50 ([8]; IC50 HDAC8, Table 2) | pIC50 ([8]; read-out: IC50 HDAC8, Table 3) | pIC50 ([8]; IC50 HDAC8, Table 3) | SMILES
8 | 6.00 to 7.00 | 6.26 | 7.00 to 8.00 | 7.14 | 7.7 | 68.5 | 6.00 to 7.00 | 6.00 to 7.00 | 6.00 to 7.00 | 6.00 to 7.00 | 6.00 to 7.00 | < 6.00 |  | 5.31 | Cc1nc(N(C)c2ccc(Oc3ccc(C(=O)NO)cc3)cc2)c2ccccc2n1 [II-6, N-hydroxy-4-(4-(methyl(2-methyl-4-quinazolinyl)amino)phenoxy)benzamide]
9 | 6.00 to 7.00 | 6.20 | > 8.00 | 8.24 | 110.0 | 218.1 | 6.00 to 7.00 | 6.00 to 7.00 | 6.00 to 7.00 | 6.00 to 7.00 | 6.00 to 7.00 | < 6.00 |  | 5.90 | Cc1nc(N(C)c2ccc(Oc3ccc(C(=O)NO)cn3)cc2)c2ccccc2n1 [II-7, N-hydroxy-6-(4-(methyl(2-methyl-4-quinazolinyl)amino)phenoxy)nicotinamide]
10 | 7.00 to 8.00 | 7.12 | 7.00 to 8.00 | 7.47 | 2.2 | 72.3 | 6.00 to 7.00 | 6.00 to 7.00 | 6.00 to 7.00 | 6.00 to 7.00 | 6.00 to 7.00 | < 6.00 | 5.61 |  | CN(c1ccc(OCCCC(=O)NO)cc1)c1ncnc2ccccc12 [II-13, N-hydroxy-4-(4-(methyl(4-quinazolinyl)amino)phenoxy)butanamide]
11 | 6.00 to 7.00 | 6.41 | > 8.00 | 8.00 | 38.5 | 167.6 | < 6.00 | < 6.00 | < 6.00 | < 6.00 | < 6.00 | < 6.00 |  | 5.78 | CN(c1ccc(OCc2ccc(C(=O)NO)cc2)cc1)c1ncnc2ccccc12 [II-16, N-hydroxy-4-((4-(methyl(4-quinazolinyl)amino)phenoxy)methyl)benzamide]
12 | 6.00 to 7.00 | 6.36 | 7.00 to 8.00 | 7.82 | 29.1 | 194.4 | 6.00 to 7.00 | 6.00 to 7.00 | 6.00 to 7.00 | 6.00 to 7.00 | 6.00 to 7.00 | < 6.00 |  | 5.54 | CN(c1ccc(Oc2ccc(C(=O)NO)cn2)cc1)c1ncnc2ccccc12 [II-18, N-hydroxy-6-(4-(methyl(4-quinazolinyl)amino)phenoxy)nicotinamide]
